# Laboratory results reported in patent publication US10238670B2, “9-aminomethyl minocycline compounds and methods of use thereof in urinary tract infection (UTI) treatment” (Paratek Pharmaceuticals, Inc., priority 2016, dated 2019).
# Like-named read-outs stand apart in the source and are kept apart here.
# Test: Phase 1b study in female adults with cystitis, plasma PK
# Assay type: in vivo, human
# Settings: for Cmax / AUC(0-t) / Tmax / AUC(0-inf) / half-life / concentration at 5 day: plasma
# Description: According to the study design, a randomized (1:1:1), open-label, parallel designed Phase 1b study comparing 3 dosing regimens of Compound 1 (9-[(2,2-dimethyl-propyl amino)-methyl-minocycline) in the treatment of female adults with cystitis was conducted. About 31 female patients with uncomplicated urinary tract infection (cystitis) who met inclusion and exclusion criteria were enrolled at 2-4 U.S. treatment centers. All enrolled subjects participated in the study for approximately 5-6 weeks. Following Screening of up to 48 hrs, eligible subjects were randomly assigned to receive one of 3 dosing regimens of Compound 1 treatment as shown below. Subjects in all treatment groups were domiciled for a 5-day treatment period. Details of the study are further described below.
# Subjects were randomized (1:1:1) to one of the following treatment arms: • 1. Group 1: IV load, p.o. daily (200 mg Compound 1 IV every 24 hours (q24h) for 1 dose, followed by 300 mg p.o. q24h for a total of 5 days); • 2. Group 2: p.o. load, p.o. daily (300 mg Compound 1 p.o. every 12 hours (q12h) for 2 doses, followed by 300 mg p.o. q24h for a total of 5 days); • 3. Group 3: high p.o. load, high p.o. daily (450 mg Compound 1 p.o. q12h for 2 doses, followed by 450 mg p.o. q24h for a total of 5 days).
# Blood samples were collected and analyzed for Compound 1 concentration at the following times. Pre-dose blood PK evaluations were based on blood samples collected within 10 min of each start (e.g., t=0 h dose for Day 1, t=24 h dose for Day 2, etc.). • Day 1: Pre-dose, and 0.75, 1, 2, 3, 4, 6, 8 and 12 hours after the t=0 h dose (12 h sample before the t=12 h dose for Groups 2 and 3); • Day 2: prior to the t=24 h dose; • Day 3: prior to the t=48 h dose; • Day 4: prior to the t=72 h dose; • Day 5: Pre-dose, and 0.5, 1, 2, 3, 4, 6, 8 and 12 hours after the t=96 h dose • Day 6: at t=120 h (24 hours after the t=96 h dose on Day 5)
# Following the final oral doses on Day 5 the Compound 1 plasma concentration-time data for Groups 1, 2 and 3 were used to determine Cmax, Tmax, AUC24h, AUCt. Trough plasma concentrations (Ctrough) following each dose (Days 2 to 6) were also determined.
# Blood samples for PK are collected at the time points specified below. • Day 1: Predose, and 0.75, 1, 2, 3, 4, 6, 8 and 12 hours after the t=0 h dose (12 h sample before the t=12 h dose for Groups 2 and 3); • Day 2: prior to the t=24 h dose; • Day 3: prior to the t=48 h dose; • Day 4: prior to the t=72 h dose; • Day 5: Predose, and 0.5, 1, 2, 3, 4, 6, 8 and 12 hours after the t=96 h dose • Day 6: at t=120 h (24 hours after the t=96 h dose on Day 5)
# Blood was collected either by fresh venipuncture or via a cannula used solely for that purpose. The dates and times for all doses of test article and PK sample collections were recorded. For intravenously administered doses of test article, the start and stop times for each infusion were recorded. Immediately after the sample was collected, the tube was gently inverted 5 to 8 times to thoroughly mix the anticoagulant and then placed upright in a cryoblock or test tube rack surrounded by ice until centrifugation. Samples were centrifuged at 1500×g for 10 minutes at approximately 4° C. within 30 minutes of collection. The resultant plasma was divided into 2 equal aliquots, placed in individual cryovials, and immediately frozen at −20° C. or colder within 1 hour of collection. The samples were kept frozen at −20° C. or colder pending shipment to the bioanalytical laboratory.
# The Compound 1 plasma concentration data was listed and summarized by time point and treatment group. The following PK parameters were estimated from the Compound 1 plasma concentration-time data: […]
# [1] = Day 1, 300 mg po (n = 10), mean
# [2] = Day 5, 300 mg po (n = 10), mean
compound,measurement,setting,value
"CN(C)c1cc(CNCC(C)(C)C)c(O)c2c1C[C@H]1C[C@H]3[C@H](N(C)C)C(O)=C(C(N)=O)C(=O)[C@@]3(O)C(O)=C1C2=O [Compound 1, 9-[(2,2-dimethyl-propylamino)-methyl]-minocycline]",AUC0-12,[1],6260 ng·h/mL
same,Cmax,[1],880 ng/mL
same,Cmin,"Day 5, 200 mg IV, 300 mg po (n = 11), mean",290 ng/mL
same,AUC0-24,[2],13500 ng·h/mL
same,Cmin,[2],320 ng/mL
same,Cmin,"Day 5, 450 mg po (n = 10), mean",480 ng/mL
same,AUC(0-t),"female, human, intravenous, 200 mg, Day 1, 200 mg IV, 300 mg po (n = 11), mean, read-out: AUC0-24",16000 ng·h/mL
same,Tmax,"female, human, intravenous, 200 mg, Day 1, 200 mg IV, 300 mg po (n = 11), median, read-out: tmax",0.75 h
same,Cmax,"female, human, intravenous, 200 mg, Day 1, 200 mg IV, 300 mg po (n = 11), mean, read-out: Cmax",2160 ng/mL
same,AUC(0-t),"female, human, intravenous, 200 mg, Day 1, IV_PO300, read-out: AUC(0-24 hrs), Geo. Mean",15600 ng·h/mL
same,AUC(0-t),"female, human, intravenous, 200 mg, Day 1, IV_PO300, read-out: AUC(0-24 hrs), Mean",16000 ng·h/mL
same,AUC(0-t),"female, human, intravenous, 200 mg, Day 1, IV_PO300, read-out: AUC(0-24 hrs), Median",14800 ng·h/mL
same,AUC(0-inf),"female, human, intravenous, 200 mg, Day 1, IV_PO300, read-out: AUC(0-inf), Geo. Mean",19700 ng·h/mL
same,AUC(0-inf),"female, human, intravenous, 200 mg, Day 1, IV_PO300, read-out: AUC(0-inf), Mean",19900 ng·h/mL
same,AUC(0-inf),"female, human, intravenous, 200 mg, Day 1, IV_PO300, read-out: AUC(0-inf), Median",19300 ng·h/mL
same,Cmax,"female, human, intravenous, 200 mg, Day 1, IV_PO300, read-out: Cmax, Geo. Mean",1960 ng/mL
same,Cmax,"female, human, intravenous, 200 mg, Day 1, IV_PO300, read-out: Cmax, Mean",2160 ng/mL
same,Cmax,"female, human, intravenous, 200 mg, Day 1, IV_PO300, read-out: Cmax, Median",1850 ng/mL
same,Tmax,"female, human, intravenous, 200 mg, Day 1, IV_PO300, read-out: Tmax, Geo. Mean",0.869 h
same,Tmax,"female, human, intravenous, 200 mg, Day 1, IV_PO300, read-out: Tmax, Mean",0.897 h
same,Tmax,"female, human, intravenous, 200 mg, Day 1, IV_PO300, read-out: Tmax, Median",0.75 h
same,half-life,"female, human, intravenous, 200 mg, Day 1, IV_PO300, read-out: T½, Geo. Mean (converted)",11.3 h
same,half-life,"female, human, intravenous, 200 mg, Day 1, IV_PO300, read-out: T½, Mean (converted)",11.4 h
same,half-life,"female, human, intravenous, 200 mg, Day 1, IV_PO300, read-out: T½, Median (converted)",11.5 h
same,AUC(0-t),"female, human, oral, 300 mg, Day 5, 200 mg IV, 300 mg po (n = 11), mean, read-out: AUC0-24",13200 ng·h/mL
same,Cmax,"female, human, oral, 300 mg, Day 5, 200 mg IV, 300 mg po (n = 11), mean, read-out: Cmax",1120 ng/mL
same,Tmax,"female, human, oral, 300 mg, Day 5, 200 mg IV, 300 mg po (n = 11), median, read-out: tmax",3 h
same,AUC(0-t),"female, human, oral, 300 mg, Day 1, PO300, read-out: AUC(0-12 hrs), Geo. Mean",6150 ng·h/mL
same,AUC(0-t),"female, human, oral, 300 mg, Day 1, PO300, read-out: AUC(0-12 hrs), Mean",6260 ng·h/mL
same,AUC(0-t),"female, human, oral, 300 mg, Day 1, PO300, read-out: AUC(0-12 hrs), Median",6520 ng·h/mL
same,Cmax,"female, human, oral, 300 mg, Day 1, PO300, read-out: Cmax, Geo. Mean",849 ng/mL
same,Cmax,"female, human, oral, 300 mg, Day 1, PO300, read-out: Cmax, Mean",877 ng/mL
same,Cmax,"female, human, oral, 300 mg, Day 1, PO300, read-out: Cmax, Median",916 ng/mL
same,Tmax,"female, human, oral, 300 mg, Day 1, PO300, read-out: Tmax, Geo. Mean",2.96 h
same,Tmax,"female, human, oral, 300 mg, Day 1, PO300, read-out: Tmax, Mean",2.99 h
same,Tmax,"female, human, oral, 300 mg, Day 1, PO300, read-out: Tmax, Median",3 h
same,AUC(0-t),"female, human, oral, 300 mg, Day 5, IV_PO300, read-out: AUC(0-24 hrs), Geo. Mean",9550 ng·h/mL
same,AUC(0-t),"female, human, oral, 300 mg, Day 5, IV_PO300, read-out: AUC(0-24 hrs), Mean",13200 ng·h/mL
same,AUC(0-t),"female, human, oral, 300 mg, Day 5, IV_PO300, read-out: AUC(0-24 hrs), Median",15800 ng·h/mL
same,Cmax,"female, human, oral, 300 mg, Day 5, IV_PO300, read-out: Cmax, Geo. Mean",808 ng/mL
same,Cmax,"female, human, oral, 300 mg, Day 5, IV_PO300, read-out: Cmax, Mean",1120 ng/mL
same,Cmax,"female, human, oral, 300 mg, Day 5, IV_PO300, read-out: Cmax, Median",1300 ng/mL
same,concentration at 5 day,"female, human, oral, 300 mg, Day 5, IV_PO300, read-out: Ctrough, Geo. Mean",214 ng/mL
same,concentration at 5 day,"female, human, oral, 300 mg, Day 5, IV_PO300, read-out: Ctrough, Mean",292 ng/mL
same,concentration at 5 day,"female, human, oral, 300 mg, Day 5, IV_PO300, read-out: Ctrough, Median",378 ng/mL
same,Tmax,"female, human, oral, 300 mg, Day 5, IV_PO300, read-out: Tmax, Geo. Mean",2.83 h
same,Tmax,"female, human, oral, 300 mg, Day 5, IV_PO300, read-out: Tmax, Mean",2.6 h
same,Tmax,"female, human, oral, 300 mg, Day 5, IV_PO300, read-out: Tmax, Median",3 h
same,half-life,"female, human, oral, 300 mg, Day 5, IV_PO300, read-out: T½, Geo. Mean (converted)",13.2 h
